The IC50 is the concentration at which inhibition is half-maximal.

Calls of active or inactive are those of the source. The rule behind the calls is not given here.

This test has as its target Acetylcholinesterase (Homo sapiens, UniProt P22303). The experiment in a line: Inhibition of AChE by Ellman method. In general terms: In Ellman's method for cholinesterases, released thiocholine reacts with DTNB.

Acetylcholinesterase, sequence (P22303 whole entry): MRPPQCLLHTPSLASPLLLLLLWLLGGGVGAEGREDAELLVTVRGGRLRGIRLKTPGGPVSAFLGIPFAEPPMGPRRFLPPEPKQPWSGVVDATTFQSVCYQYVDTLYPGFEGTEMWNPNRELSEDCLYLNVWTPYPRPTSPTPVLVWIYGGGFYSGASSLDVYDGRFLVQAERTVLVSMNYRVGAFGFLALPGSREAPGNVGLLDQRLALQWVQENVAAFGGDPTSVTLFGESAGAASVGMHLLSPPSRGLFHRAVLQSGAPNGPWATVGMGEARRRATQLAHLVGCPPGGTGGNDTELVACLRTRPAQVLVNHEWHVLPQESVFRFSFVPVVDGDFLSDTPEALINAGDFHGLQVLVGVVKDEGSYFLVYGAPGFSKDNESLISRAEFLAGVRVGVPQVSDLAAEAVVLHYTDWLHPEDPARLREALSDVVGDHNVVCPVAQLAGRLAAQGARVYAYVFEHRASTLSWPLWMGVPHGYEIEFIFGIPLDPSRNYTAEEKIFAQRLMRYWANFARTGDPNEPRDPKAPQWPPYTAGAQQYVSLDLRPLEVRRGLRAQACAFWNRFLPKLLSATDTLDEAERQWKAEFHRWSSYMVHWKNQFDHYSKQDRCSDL

Turning to `C[C@H]1C[C@]2(O)N3CC=CC24[C@H](CCC3)C(=O)C[C@@H]4[C@H]1O` (some centres undefined), the outcome was inactive.

In turn, `CC1=C[C@H]2[C@H](O)C(=O)[C@H]3CCCN4CCC[C@H]2[C@]34C1` came in with an IC50 of 16.7 µM.

Compound `C[C@H]1C=C2N3CC[C@@H](O)C24[C@H](CC(=O)[C@H]4C[C@H](O)C3)C1` (some centres undefined) came in with an IC50 of 27.9 µM.

On to `C[C@H]1C=C2N3CCC[C@@H]4C(=O)C[C@H](C1)C24[C@H](O)CC3` (some centres undefined), for which the outcome was inactive.
